Data: US9221795B2, “Phosphatidylinositol 3-kinase inhibitors” (Gilead Sciences, Inc., priority 2013, dated 2015)
pEC50, pIC50: −log10 of the molar value.

What was measured:
PI3Kδ = PI3Kδ (Homo sapiens (Human), UniProt O00329); test: Enzymatic activity of PI3K isoforms, TR-FRET assay (PI3Kδ); assay type: biochemical; details: 2× Km ATP, geometric mean if more than one value
Method: Enzymatic activity of the class I PI3K isoforms in the presence of the compounds of Table 1 and Compounds X, Y and Z was measured using a time-resolved fluorescence resonance energy transfer (TR-FRET) assay. The TR-FRET assay was used to monitor formation of the product 3,4,5-inositol triphosphate molecule (PIP3) as it competed with fluorescently labeled PIP3 for binding to the GRP-1 pleckstrin homology domain protein. An increase in […] product results in a decrease in TR-FRET signal as the labeled fluorophore is displaced from the GRP-1 protein binding site.
Class I PI3K isoforms were expressed and purified as heterodimeric recombinant proteins. All assay reagents and buffers for the TR-FRET assay were purchased from Millipore. PI3K isoforms were assayed under initial rate conditions in the presence of 25 mM Hepes (pH 7.4), and 2× Km ATP (75-500 μM), 2 μM PIP2, 5% glycerol, 5 mM MgCl2, 50 mM NaCl, 0.05% (v/v) Chaps, 1 mM dithiothreitol, 1% (v/v) DMSO at the following concentrations for each isoforms: PI3Kα, PI3Kβ, and PI3Kδ between 25 and 50 pM, and PI3Kγ at 2 nM. After an assay reaction time of 30 minutes at 25° C., reactions were terminated with a final concentration of 10 mM EDTA, 10 nM labeled-PIP3, and 35 nM Europium labeled GRP-1 detector protein before reading TR-FRET on an Envision plate reader (Ex: 340 nm; Em: 615/665 nm; […] delay and 500 μs read window).
Data were normalized based on positive ([…] wortmanin) and negative (DMSO) controls. α, β, δ, and γ IC50 values were calculated from the fit of the dose-response curves to a four-parameter equation. All IC50 values represent geometric mean values if more than one value was obtained. IC50 values were reported in units of nM.

basophils = test: Basophil activation in human whole blood (Flow2 CAST kit, CD63 flow cytometry); assay type: cell-based; details: Homo sapiens, human whole blood, basophils activated with anti-FcεRI mAb or fMLP, percent CD63 positive cells
Method: Effect on basophil activation was measured in human whole blood using the Flow2 CAST® kit (Buhlmann Laboratories AG, Baselstrasse, Switzerland) following the protocol provided by the manufacturer with minor modifications. Human whole blood was collected into K2-EDTA venipuncture tubes. Whole blood samples were treated with either DMSO (0.3% final) or a serial dilution of compounds in DMSO for 60 minutes at 37° C. Basophils were then activated either with anti-FcεRI mAb or with fMLP. To activate basophils using the anti-FcεRI mAb; 50 μL of whole blood was mixed with 110 μL of stimulation buffer (B-BAT-STB) and 20 μl of anti-FcεRI (B-BAT-STCON). To activate basophils with fMLP; 50 μL of whole blood was mixed with 80 μL of stimulation buffer (B-BAT-STB) and 50 μL of fMLP (B-CCR-FMLP). Stimulation buffer was used as a negative control. 20 μL of the staining reagent (combination of anti-human CD63-FITC and anti-human CCR3-PE mAbs) was then added to each tube. The tubes were mixed gently and incubated for 25 minutes at 37° C. Subsequently, erythrocytes were lysed and fixed by the addition of 2 mL of lysing solution (B-BAT-LYR) for 10 minutes at room temperature. Cells were pelleted by centrifugation at 1200 rpm for 10 minutes at room temperature in a swing-out rotor. Supernatant was aspirated and cell pellet resuspended in 400 μL of wash buffer. Flow cytometric analysis of the basophil activation was performed on a FC500MPL flow cytometer (Beckman Coulter Inc., Fullerton, Calif.). CCR3-staining and side scatter were applied to gate at least 200 basophils that expressed a high density of CCR3. The percent CD63 positive cells within the gated basophil population were determined in different treatment groups and normalized to the vehicle control (0.3% DMSO) with anti-FcεRI mAb of fMLP stimulus as 100%. Final compound concentration was adjusted to correct for dilution effect of added reagents. The EC50 values were calculated from the analysis of the dose-response curves to a four-parameter equation.

Chain of PI3Kδ (O00329 whole entry, the tested form may be a part, canonical isoform): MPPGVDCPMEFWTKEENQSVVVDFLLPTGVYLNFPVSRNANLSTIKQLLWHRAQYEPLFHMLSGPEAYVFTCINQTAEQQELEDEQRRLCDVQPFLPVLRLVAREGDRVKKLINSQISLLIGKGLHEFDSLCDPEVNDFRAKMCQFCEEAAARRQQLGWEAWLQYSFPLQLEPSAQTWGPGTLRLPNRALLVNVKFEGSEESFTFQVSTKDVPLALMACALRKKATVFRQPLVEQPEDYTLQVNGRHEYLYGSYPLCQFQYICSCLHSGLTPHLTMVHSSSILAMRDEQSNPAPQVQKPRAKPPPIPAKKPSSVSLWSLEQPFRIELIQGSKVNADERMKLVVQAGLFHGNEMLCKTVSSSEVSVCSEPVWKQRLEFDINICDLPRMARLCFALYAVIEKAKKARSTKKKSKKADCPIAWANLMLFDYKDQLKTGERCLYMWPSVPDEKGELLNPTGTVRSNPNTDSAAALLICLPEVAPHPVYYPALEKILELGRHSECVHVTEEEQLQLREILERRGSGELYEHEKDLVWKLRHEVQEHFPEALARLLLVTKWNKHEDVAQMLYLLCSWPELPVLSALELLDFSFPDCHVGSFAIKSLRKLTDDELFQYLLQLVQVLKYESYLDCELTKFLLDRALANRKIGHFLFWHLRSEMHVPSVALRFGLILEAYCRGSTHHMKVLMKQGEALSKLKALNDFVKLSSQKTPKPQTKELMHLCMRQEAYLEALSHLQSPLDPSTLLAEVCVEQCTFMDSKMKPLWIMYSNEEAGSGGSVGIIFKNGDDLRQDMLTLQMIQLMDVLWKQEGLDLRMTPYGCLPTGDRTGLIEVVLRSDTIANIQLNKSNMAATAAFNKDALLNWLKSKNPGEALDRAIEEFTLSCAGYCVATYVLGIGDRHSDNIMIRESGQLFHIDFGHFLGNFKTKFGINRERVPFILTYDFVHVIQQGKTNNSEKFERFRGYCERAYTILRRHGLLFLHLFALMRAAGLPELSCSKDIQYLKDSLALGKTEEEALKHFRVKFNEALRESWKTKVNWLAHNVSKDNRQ
Chain of PI3Kδ (P27986 whole entry partner, the tested form may be a part, canonical isoform): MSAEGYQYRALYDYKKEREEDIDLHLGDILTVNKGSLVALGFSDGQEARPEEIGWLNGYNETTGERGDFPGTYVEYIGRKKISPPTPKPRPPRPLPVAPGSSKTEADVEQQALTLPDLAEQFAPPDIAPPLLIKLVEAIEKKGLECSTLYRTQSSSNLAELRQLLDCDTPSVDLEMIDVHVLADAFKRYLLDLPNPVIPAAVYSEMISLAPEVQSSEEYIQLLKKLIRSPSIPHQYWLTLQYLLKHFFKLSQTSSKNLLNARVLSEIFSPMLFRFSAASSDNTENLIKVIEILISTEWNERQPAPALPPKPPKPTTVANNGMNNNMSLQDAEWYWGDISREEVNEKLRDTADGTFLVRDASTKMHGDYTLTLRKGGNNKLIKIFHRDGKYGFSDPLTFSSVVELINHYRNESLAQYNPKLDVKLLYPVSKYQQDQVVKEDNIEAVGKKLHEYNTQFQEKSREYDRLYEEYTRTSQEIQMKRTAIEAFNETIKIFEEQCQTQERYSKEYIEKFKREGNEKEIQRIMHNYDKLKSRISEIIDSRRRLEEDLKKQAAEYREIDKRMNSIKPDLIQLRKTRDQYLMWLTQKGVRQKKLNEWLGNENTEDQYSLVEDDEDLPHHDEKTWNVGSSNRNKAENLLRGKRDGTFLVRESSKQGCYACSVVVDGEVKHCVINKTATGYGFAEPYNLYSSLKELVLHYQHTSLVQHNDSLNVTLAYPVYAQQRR

SMILES | pIC50 (PI3Kδ) | pEC50 (basophils; class symbol) | pEC50 (basophils; geometric mean)
N#Cc1c(N)nc(N)nc1N[C@H](c1nc2ccc(F)c(Cl)c2c(=O)n1-c1cccnc1)C1CC1 [Compound 37, (S)-2,4-diamino-6-((5-chloro-6-fluoro-4-oxo-3-(pyridin-3-yl)-3,4-dihydroquinazolin-2-yl)(cyclopropyl)methylamino)pyrimidine-5-carbonitrile] | 8.30 | 7.30 to 8.00 | 7.80
Cc1cccc2nc([C@H](C)Nc3nc(N)nc(N)c3C#N)n(-c3cccnc3)c(=O)c12 [Compound 7, (S)-2,4-diamino-6-(1-(5-methyl-4-oxo-3-(pyridin-3-yl)-3,4-dihydroquinazolin-2-yl)ethylamino)pyrimidine-5-carbonitrile] | 9.40 | > 9.00 | 9.52
Cc1cncc(-n2c([C@@H](Nc3nc(N)nc(N)c3C#N)C3CC3)nc3cccc(Cl)c3c2=O)c1 [Compound 17, (S)-2,4-diamino-6-((5-chloro-3-(5-methylpyridin-3-yl)-4-oxo-3,4-dihydroquinazolin-2-yl)(cyclopropyl)methylamino)pyrimidine-5-carbonitrile] | 8.40 | 8.00 to 9.00 | 8.30
N#Cc1ccc(F)c2nc([C@@H](Nc3nc(N)nc(N)c3Cl)C3CC3)n(-c3cccnc3)c(=O)c12 [Compound 59, (S)-2-(cyclopropyl((2,6-diamino-5-chloropyrimidin-4-yl)amino)methyl)-8-fluoro-4-oxo-3-(pyridin-3-yl)-3,4-dihydroquinazoline-5-carbonitrile] | 6.42 |  | 
C[C@H](Nc1nc(N)nc(N)c1Cl)c1nc2cccc(Cl)c2c(=O)n1-c1cccnc1 [Compound 53, (S)-5-Chloro-2-(1-((2,6-diamino-5-chloropyrimidin-4-yl)amino)ethyl)-3-(pyridin-3-yl)quinazolin-4(3H)-on] | 8.40 |  | 
N#Cc1c(N)nc(N)nc1N[C@@H](c1nc2c(F)ccc(Cl)c2c(=O)n1-c1cccnc1)C1CC1 [Compound 112, (R)-2,4-Diamino-6-(((5-chloro-8-fluoro-4-oxo-3-(pyridin-3-yl)-3,4-dihydroquinazolin-2-yl)(cyclopropyl)methyl)amino)pyrimidine-5-carbonitrile] | 8.15 |  | 
Cc1c(F)cncc1-n1c([C@@H](Nc2nc(N)nc(N)c2C#N)C2CC2)nc2c(F)ccc(Cl)c2c1=O (atropisomer, axis not shown) [Compound 65, (S)-2,4-Diamino-6-(((5-chloro-8-fluoro-3-(5-fluoro-4-methylpyridin-3-yl)-4-oxo-3,4-dihydroquinazolin-2-yl)(cyclopropyl)methyl)amino)pyrimidine-5-carbonitrile] | 7.38 |  | 
C[C@H](Nc1nc(N)nc(N)c1C(N)=O)c1nc2cccc(Cl)c2c(=O)n1-c1cccnc1 [Compound 50, (S)-2,4-Diamino-6-((1-(5-chloro-4-oxo-3-(pyridin-3-yl)-3,4-dihydroquinazolin-2-yl)ethyl)amino)pyrimidine-5-carboxamide] | 8.70 |  | 
C[C@H](Nc1nc(N)nc(N)c1Cl)c1nc2cccc(Cl)c2c(=O)n1-c1cncc(F)c1 [Compound 51, (S)-5-Chloro-2-(1-((2,6-diamino-5-chloropyrimidin-4-yl)amino)ethyl)-3-(5-fluoropyridin-3-yl)quinazolin-4(3h)-one] | 8.15 |  | 
CC[C@H](Nc1nc(N)nc(N)c1C#N)c1nc2c(C#N)cc(F)cc2c(=O)n1-c1cncc(F)c1 [Compound 55, (S)-2-(1-((2,6-Diamino-5-cyanopyrimidin-4-yl)amino)propyl)-6-fluoro-3-(5-fluoropyridin-3-yl)-4-oxo-3,4-dihydroquinazoline-8-carbonitrile] | 7.22 |  | 

The remaining lines, values ahead:

pIC50 (PI3Kδ) | pEC50 (basophils; class symbol) | pEC50 (basophils; geometric mean) | SMILES
9.00 | > 9.00 | 9.15 | Cc1cncc(-n2c([C@H](C)Nc3nc(N)nc(N)c3C#N)nc3cccc(Cl)c3c2=O)c1 [Compound 16, (S)-2,4-diamino-6-(1-(5-chloro-3-(5-methylpyridin-3-yl)-4-oxo-3,4-dihydroquinazolin-2-yl)ethylamino)pyrimidine-5-carbonitrile]
8.15 |  |  | Cc1c(F)cncc1-n1c([C@H](C)Nc2nc(N)nc(N)c2C#N)nc2cccc(F)c2c1=O (atropisomer, axis not shown) [Compound 68, (S)-2,4-diamino-6-((1-(5-fluoro-3-(5-fluoro-4-methylpyridin-3-yl)-4-oxo-3,4-dihydroquinazolin-2-yl)ethyl)amino)pyrimidine-5-carbonitrile]
8.05 |  |  | CC[C@@H](Nc1nc(N)nc(N)c1C#N)c1nc2c(F)ccc(Cl)c2c(=O)n1-c1cccnc1 [Compound 111, (R)-2,4-Diamino-6-((1-(5-chloro-8-fluoro-4-oxo-3-(pyridin-3-yl)-3,4-dihydroquinazolin-2-yl)propyl)amino)pyrimidine-5-carbonitrile]
9.00 |  |  | CC[C@H](Nc1nc(N)nc(N)c1C#N)c1nc2cccc(Cl)c2c(=O)n1-c1cncc(F)c1C (atropisomer, axis not shown) [Compound 72, (S)-2,4-diamino-6-((1-(5-chloro-3-(5-fluoro-4-methylpyridin-3-yl)-4-oxo-3,4-dihydroquinazolin-2-yl)propyl)amino)pyrimidine-5-carbonitrile]
7.85 |  |  | Cc1c(F)cncc1-n1c([C@H](C)Nc2nc(N)nc(N)c2C#N)nc2ccc(F)cc2c1=O (atropisomer, axis not shown) [Compound 76, (S)-2,4-diamino-6-((1-(6-fluoro-3-(5-fluoro-4-methylpyridin-3-yl)-4-oxo-3,4-dihydroquinazolin-2-yl)ethyl)amino)pyrimidine-5-carbonitrile]
7.12 |  |  | Cc1cncc(-n2c([C@H](C)Nc3nc(N)nc(N)c3C#N)nc3cccc(Cl)c3c2=O)c1C (atropisomer, axis not shown) [Compound 77, (S)-2,4-diamino-6-((1-(5-chloro-3-(4,5-dimethylpyridin-3-yl)-4-oxo-3,4-dihydroquinazolin-2-yl)ethyl)amino)pyrimidine-5-carbonitrile]
6.29 |  |  | Cc1c(F)cncc1-n1c([C@H](C)Nc2nc(N)nc(N)c2C#N)nc2ccc(F)cc2c1=O (atropisomer, axis not shown) [Compound 75, (S)-2,4-diamino-6-((1-(6-fluoro-3-(5-fluoro-4-methylpyridin-3-yl)-4-oxo-3,4-dihydroquinazolin-2-yl)ethyl)amino)pyrimidine-5-carbonitrile]
8.52 |  |  | Cc1c(F)cncc1-n1c([C@@H](Nc2nc(N)nc(N)c2C#N)C2CC2)nc2cccc(Cl)c2c1=O (atropisomer, axis not shown) [Compound 70, (S)-2,4-diamino-6-(((5-chloro-3-(5-fluoro-4-methylpyridin-3-yl)-4-oxo-3,4-dihydroquinazolin-2-yl)(cyclopropyl)methyl)amino)pyrimidine-5-carbonitrile]
7.31 |  |  | CC[C@H](Nc1nc(N)nc(N)c1C#N)c1nc2cccc(Cl)c2c(=O)n1-c1cncc(F)c1C (atropisomer, axis not shown) [Compound 71, (S)-2,4-diamino-6-((1-(5-chloro-3-(5-fluoro-4-methylpyridin-3-yl)-4-oxo-3,4-dihydroquinazolin-2-yl)propyl)amino)pyrimidine-5-carbonitrile]
